# Test results from patent publication US6358885B1, “Substituted phenylheterocyclic herbicides” (Mississippi State University, priority 1992, dated 2002).
# Experiments:
# rice = test: Test C flood test plant response rating 0 to 100; format: in vivo, Oryza sativa; settings: for Plant response rating Rice Japonica: flood test species listed under POSTEMERGENCE, 0 to 100 scale
# Description: (§1) The compounds evaluated in this test were formulated in a non-phytoxic solvent and applied to the soil surface before plant seedlings emerged (preemergence application), to water that covered the soil surface (flood application), and to plants that were in the one-to-four leaf stage (postemergence application). A sandy loam soil was used for the preemergence and postemergence tests, while a silt loam soil was used in the flood test. Water depth was approximately 2.5 cm for the flood test and was maintained at this level for the duration of the test. Plant species in the preemergence and postemergence tests consisted of barley (Hordeum vulgare), bedstraw (Galium aparine), blackgrass (Alopecurus myosuroides), chickweed (Stellaria media), corn (Zea mays), cotton (Gossypium hirsutum), crabgrass (Digitaria sanguinalis), downy brome (Bromus tectorum), giant foxtail (Setaria faberii), lambsquarters (Chenopodium album), morningglory (Ipomoea hederacea), pigweed ([…]), rape (Brassica napus), ryegrass (Lolium multiflorum), sorghum (Sorghum bicolor), soybean (Glycine max), speedwell (Veronica persica), sugar beet (Beta vulgaris), velvetleaf (Abutilon theophrasti), wheat (Triticum aestivum), wild buckwheat (Polygonum convolvulus), and wild oat (Avena fatua). All plant species were planted one day before application of the compound for the preemergence portion-of this test. Plantings of these species were adjusted to produce plants of appropriate size for the post-emergence portion of the test. […] All plant species were grown using normal greenhouse practices. Visual evaluations of injury expressed on treated plants, when compared to untreated controls, were recorded approximately fourteen to twenty one days after application of the test compound. […] A dash (-) response means no test result.
# barnyardgrass = test: Test B preemergence/postemergence greenhouse plant response rating 0 to 10; format: in vivo, Echinochloa crus-galli; settings: for Plant response rating, Barnyardgrass: 0 to 10 scale
# How it was run: (§2)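 Postemergence treatment of plants two to eighteen cm tall ran alongside preemergence treatment of planted seed, each using compound in a non-phytotoxic solvent.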
# giant foxtail [1] = test: as above; format: in vivo, Setaria faberii; settings: 0 to 10 scale
# How it was run: as §2
# bedstraw = test: Test C preemergence/postemergence greenhouse plant response rating 0 to 100; format: in vivo, Galium aparine; settings: POSTEMERGENCE; for Plant response rating, Bedstraw: 0 to 100 scale
# How it was run: (§3)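 Compounds in non-phytotoxic solvent went onto sandy loam before emergence (seeded one day earlier) or onto plants at the one-to-four leaf stage. Duck salad was treated via flood water (~2.5 cm, maintained) over silt loam.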
# crabgrass [2] = test: as above; format: in vivo, Digitaria sanguinalis; settings: POSTEMERGENCE; for Plant response rating, Crabgrass: 0 to 100 scale
# How it was run: as §3
# corn = test: Test B preemergence/postemergence greenhouse plant response rating 0 to 10; format: in vivo, Zea mays; settings: for Plant response rating, Corn: 0 to 10 scale
# How it was run: as §2
# duck salad = test: Test C flood test plant response rating 0 to 100; format: in vivo, Heteranthera limosa; settings: for Plant response rating Duck salad: flood test species listed under POSTEMERGENCE, 0 to 100 scale
# Description: as §1
# wild oat = test: Test C preemergence/postemergence greenhouse plant response rating 0 to 100; format: in vivo, Avena fatua; settings: POSTEMERGENCE; for Plant response rating, Wild oat: 0 to 100 scale
# How it was run: as §3
# crabgrass [3] = test: Test B preemergence/postemergence greenhouse plant response rating 0 to 10; format: in vivo, Digitaria spp.; settings: for Plant response rating, Crabgrass: 0 to 10 scale
# How it was run: as §2
# giant foxtail [4] = test: Test C preemergence/postemergence greenhouse plant response rating 0 to 100; format: in vivo, Setaria faberii; settings: POSTEMERGENCE; for Plant response rating, Giant foxtail: 0 to 100 scale
# How it was run: as §3
# chickweed [5] = test: Test B preemergence/postemergence greenhouse plant response rating 0 to 10; format: in vivo, Stellaria media; settings: 0 to 10 scale
# How it was run: as §2
# barley = test: as above; format: in vivo, Hordeum vulgare; settings: for Plant response rating, Barley: 0 to 10 scale
# How it was run: as §2
# wild buckwheat = test: Test C preemergence/postemergence greenhouse plant response rating 0 to 100; format: in vivo, Polygonum convolvulus; settings: POSTEMERGENCE; for Plant response rating, Wild buckwheat: 0 to 100 scale
# How it was run: as §3
# rape = test: Test B preemergence/postemergence greenhouse plant response rating 0 to 10; format: in vivo, Brassica napus; settings: 0 to 10 scale
# How it was run: as §2
# wheat = test: as above; format: in vivo, Triticum aestivum; settings: 0 to 10 scale
# How it was run: as §2
# sorghum = test: as above; format: in vivo, Sorghum bicolor; settings: 0 to 10 scale
# How it was run: as §2
# chickweed [6] = test: Test C preemergence/postemergence greenhouse plant response rating 0 to 100; format: in vivo, Stellaria media; settings: POSTEMERGENCE; for Plant response rating, Chickweed: 0 to 100 scale
# How it was run: as §3
# downy brome = test: as above; format: in vivo, Bromus tectorum; settings: POSTEMERGENCE; for Plant response rating Downy Brome: 0 to 100 scale
# How it was run: as §3
# [7] = POSTEMERGENCE section, flood test, Rate 4 g/ha
# [8] = Rate 16 g/ha, under POSTEMERGENCE head (flood test species)
smiles,measurement,setting,value
COC(=O)C(C)Oc1cc(-c2nn3c(c2Cl)CCCC3)c(F)cc1Cl (centres unmarked) [Compound 28],"Plant response rating (0 to 100), Rice Japonica",rice; [7],0
same,"Plant response rating (0 to 100), Rice Japonica",rice; [8],45
same,Plant response rating Rice Japonica,rice; 62 g/ha,65
same,Plant response rating Rice Japonica,rice; 250 g/ha,85
same,"Plant response rating (0 to 10 scale), Barnyardgrass","barnyardgrass; POSTEMERGENCE, Rate 50 g/ha",7
same,"Plant response rating, Barnyardgrass","barnyardgrass; POSTEMERGENCE, Rate 200 g/ha",10
same,"Plant response rating, Barnyardgrass","barnyardgrass; PREEMERGENCE, Rate 50 g/ha",0
same,"Plant response rating, Barnyardgrass","barnyardgrass; Rate 200 g/ha, PREEMERGENCE",1
same,"Plant response rating, Giant foxtail","giant foxtail [1]; POSTEMERGENCE, Rate 50 g/ha",5
same,"Plant response rating, Giant foxtail","giant foxtail [1]; POSTEMERGENCE, Rate 200 g/ha",8
same,"Plant response rating, Giant foxtail","giant foxtail [1]; PREEMERGENCE, Rate 50 g/ha",0
same,"Plant response rating, Giant foxtail","giant foxtail [1]; Rate 200 g/ha, PREEMERGENCE",5
same,"Plant response rating, Bedstraw",bedstraw; 62 g/ha,100
same,"Plant response rating, Bedstraw",bedstraw; 250 g/ha,100
same,"Plant response rating (0 to 100), Bedstraw",bedstraw; Rate 4 g/ha,90
same,"Plant response rating (0 to 100), Bedstraw",bedstraw; Rate 16 g/ha,100
same,"Plant response rating, Crabgrass",crabgrass [2]; 62 g/ha,20
same,"Plant response rating, Crabgrass",crabgrass [2]; 250 g/ha,50
same,"Plant response rating (0 to 100), Crabgrass",crabgrass [2]; Rate 4 g/ha,0
same,"Plant response rating (0 to 100), Crabgrass",crabgrass [2]; Rate 16 g/ha,0
same,"Plant response rating (0 to 10 scale), Corn","corn; POSTEMERGENCE, Rate 50 g/ha",6
same,"Plant response rating, Corn","corn; POSTEMERGENCE, Rate 200 g/ha",9
same,"Plant response rating, Corn","corn; PREEMERGENCE, Rate 50 g/ha",0
same,"Plant response rating, Corn","corn; Rate 200 g/ha, PREEMERGENCE",2
same,"Plant response rating (0 to 100), Duck salad",duck salad; [7],0
same,"Plant response rating (0 to 100), Duck salad",duck salad; [8],0
same,Plant response rating Duck salad,duck salad; 62 g/ha,30
same,Plant response rating Duck salad,duck salad; 250 g/ha,70
same,"Plant response rating, Wild oat",wild oat; 62 g/ha,50
same,"Plant response rating, Wild oat",wild oat; 250 g/ha,70
same,"Plant response rating (0 to 100), Wild oat",wild oat; Rate 4 g/ha,20
same,"Plant response rating (0 to 100), Wild oat",wild oat; Rate 16 g/ha,30
same,"Plant response rating (0 to 10 scale), Crabgrass","crabgrass [3]; POSTEMERGENCE, Rate 50 g/ha",5
same,"Plant response rating, Crabgrass","crabgrass [3]; POSTEMERGENCE, Rate 200 g/ha",6
same,"Plant response rating, Crabgrass","crabgrass [3]; PREEMERGENCE, Rate 50 g/ha",0
same,"Plant response rating, Crabgrass","crabgrass [3]; Rate 200 g/ha, PREEMERGENCE",2
same,"Plant response rating, Giant foxtail",giant foxtail [4]; 62 g/ha,100
same,"Plant response rating, Giant foxtail",giant foxtail [4]; 250 g/ha,100
same,"Plant response rating (0 to 100), Giant foxtail",giant foxtail [4]; Rate 4 g/ha,20
same,"Plant response rating (0 to 100), Giant foxtail",giant foxtail [4]; Rate 16 g/ha,60
same,"Plant response rating, Chickweed","chickweed [5]; POSTEMERGENCE, Rate 200 g/ha",9
same,"Plant response rating, Chickweed","chickweed [5]; PREEMERGENCE, Rate 50 g/ha",1
same,"Plant response rating, Chickweed","chickweed [5]; Rate 200 g/ha, PREEMERGENCE",7
same,"Plant response rating (0 to 10 scale), Barley","barley; POSTEMERGENCE, Rate 50 g/ha",6
same,"Plant response rating, Barley","barley; POSTEMERGENCE, Rate 200 g/ha",6
same,"Plant response rating, Barley","barley; PREEMERGENCE, Rate 50 g/ha",0
same,"Plant response rating, Barley","barley; Rate 200 g/ha, PREEMERGENCE",0
same,"Plant response rating, Wild buckwheat",wild buckwheat; 62 g/ha,70
same,"Plant response rating, Wild buckwheat",wild buckwheat; 250 g/ha,90
same,"Plant response rating (0 to 100), Wild buckwheat",wild buckwheat; Rate 4 g/ha,30
same,"Plant response rating (0 to 100), Wild buckwheat",wild buckwheat; Rate 16 g/ha,60
same,"Plant response rating, Rape","rape; POSTEMERGENCE, Rate 50 g/ha",10
same,"Plant response rating, Rape","rape; POSTEMERGENCE, Rate 200 g/ha",10
same,"Plant response rating, Rape","rape; PREEMERGENCE, Rate 50 g/ha",9
same,"Plant response rating, Rape","rape; Rate 200 g/ha, PREEMERGENCE",10
same,"Plant response rating, Wheat","wheat; POSTEMERGENCE, Rate 50 g/ha",7
same,"Plant response rating, Wheat","wheat; POSTEMERGENCE, Rate 200 g/ha",9
same,"Plant response rating, Wheat","wheat; PREEMERGENCE, Rate 50 g/ha",0
same,"Plant response rating, Wheat","wheat; Rate 200 g/ha, PREEMERGENCE",2
same,"Plant response rating, Sorghum","sorghum; POSTEMERGENCE, Rate 50 g/ha",7
same,"Plant response rating, Sorghum","sorghum; POSTEMERGENCE, Rate 200 g/ha",9
same,"Plant response rating, Sorghum","sorghum; PREEMERGENCE, Rate 50 g/ha",0
same,"Plant response rating, Sorghum","sorghum; Rate 200 g/ha, PREEMERGENCE",0
same,"Plant response rating, Chickweed",chickweed [6]; 62 g/ha,80
same,"Plant response rating, Chickweed",chickweed [6]; 250 g/ha,80
same,"Plant response rating (0 to 100), Chickweed",chickweed [6]; Rate 4 g/ha,20
same,"Plant response rating (0 to 100), Chickweed",chickweed [6]; Rate 16 g/ha,50
same,Plant response rating Downy Brome,downy brome; 62 g/ha,60
same,Plant response rating Downy Brome,downy brome; 250 g/ha,100
same,"Plant response rating (0 to 100), Downy Brome",downy brome; Rate 4 g/ha,10
same,"Plant response rating (0 to 100), Downy Brome",downy brome; Rate 16 g/ha,40
